Measurements: patent US8178506B2, “Oligomeric compounds and compositions for use in modulation of small non-coding RNAs” (Regulus Therapeutics Inc., priority 2003, dated 2012)
In the oligonucleotide strings, read from the 5' end, every base follows the letter of its sugar. An asterisk marks phosphorothioate; unmarked linkages are phosphodiester. Other units and linkages are bracketed, terminal groups are in braces. A string of capitals states the bases alone. e = 2'-O-(2-methoxyethyl) (MOE); [5mC] = 5-methylcytosine; d = 2'-deoxy (DNA)

Legend:
adipocytes = assay: Triglyceride accumulation assay in adipocytes; type: cell-based, human; details: differentiating adipocytes transfected with oligomeric compound
aP2 = aP2 mRNA expression in adipocytes (real-time PCR); type: cell-based, human; details: differentiating adipocytes transfected with oligomeric compound
HSL = HSL mRNA expression in adipocytes (real-time PCR); type: cell-based, human; details: differentiating adipocytes transfected with oligomeric compound
Glut4 = Glut4 mRNA expression in adipocytes (real-time PCR); type: cell-based, human; details: differentiating adipocytes transfected with oligomeric compound
PPARγ = PPARγ mRNA expression in adipocytes (real-time PCR); type: cell-based, human; details: differentiating adipocytes transfected with oligomeric compound
T47D cells = assay: Caspase-3 activity assay (apoptosis) in T47D cells; details: for Fold Increase over UTC (caspase activity) / Fold Increase over UTC (caspase-3 activity, apoptosis): T47D cells, 48 hours; for Fold Increase over UTC (caspase activity) / apoptosis in T47D cells: 200 nM; for Fold Increase over UTC (caspase activity): relative to untreated control; for Fold Increase over UTC (caspase-3 activity, apoptosis): 200 nM oligomeric compound; for apoptosis in T47D cells: caspase assay, conclusion from Tables 9-12
[1] = system: BJ, B16-F10, T47D, T47Dp53 and HeLa cells; assay: Cell cycle assay (propidium iodide flow cytometry), cell line panel; type: cell-based; details: for G1 (percentage of cells in phase of the cell cycle) / G2/M (percentage of cells in phase of the cell cycle) / S (percentage of cells in phase of the cell cycle) / SubG1 (percentage of cells in phase of the cell cycle) / aneuploid (percentage of cells): 150 nM oligomeric compound, 4.5 μg/ml LIPOFECTIN, after 72 hours, propidium iodide flow cytometry; for percentage of aneuploid cells: 150 nM, 72 hours (Table 29)
HeLa cells = assay: Cell cycle assay in HeLa cells; type: cell-based, human; details: HeLa cells, 150 nM oligomeric compound; for % cells aneuploid / % cells in cell cycle phase G1 / % cells in cell cycle phase G2/M / % cells in cell cycle phase S / % cells in cell cycle phase subG1: 24 hours, relative to untreated control (UTC = 100); for % cells in cell cycle phase: G1 / % cells in cell cycle phase: G2/M / % cells in cell cycle phase: S / % cells in cell cycle phase: aneuploid / % cells in cell cycle phase: subG1: 48 hours after treatment, relative to untreated control (UTC=100)

| Substance | G1 (percentage of cells in phase of the cell cycle) [1] [%] | G2/M (percentage of cells in phase of the cell cycle) [1] [%] | S (percentage of cells in phase of the cell cycle) [1] [%] | SubG1 (percentage of cells in phase of the cell cycle) [1] [%] | aneuploid (percentage of cells) [1] [%] | Fold Increase over UTC (caspase-3 activity, apoptosis) (T47D cells; experiment of Table 12) [fold] | % cells aneuploid (HeLa cells) [%] | % cells in cell cycle phase G1 (HeLa cells) [%] | % cells in cell cycle phase G2/M (HeLa cells) [%] | % cells in cell cycle phase S (HeLa cells) [%] | % cells in cell cycle phase subG1 (HeLa cells) [%] | % cells in cell cycle phase: G1 (HeLa cells) [%] | % cells in cell cycle phase: G2/M (HeLa cells) [%] | % cells in cell cycle phase: S (HeLa cells) [%] | % cells in cell cycle phase: aneuploid (HeLa cells) [%] | % cells in cell cycle phase: subG1 (HeLa cells) [%] | further results |
| --- | --- | --- | --- | --- | --- | --- | --- | --- | --- | --- | --- | --- | --- | --- | --- | --- | --- |
| 328417 (antisense eT*eA*eA*eT*eT*dT*dT*dA*dG*dA*dA*dT*d[5mC]*dT*dT*eA*eA*e[5mC]*eG*e[5mC]) [compound 328417] |  |  |  |  |  |  |  |  |  |  |  |  |  |  |  |  | TG (triglyceride accumulation) (adipocytes): 83 percentage of untreated control (UTC); AP2 mRNA (aP2): 87 percentage of untreated control (UTC); HSL mRNA (HSL): 98 percentage of untreated control (UTC); GLUT4 mRNA (Glut4): 68 percentage of untreated control (UTC); PPAR gamma mRNA (PPARγ): 94 percentage of untreated control (UTC); Fold Increase over UTC (caspase activity) (T47D cells): 1.0 |
| 328394 (eG*eT*eT*eT*eT*dT*dT*d[5mC]*dA*dA*dA*dT*d[5mC]*d[5mC]*d[5mC]*eA*eA*eA*e[5mC]*eT) [compound 328394] | 59.5 | 16 | 24.5 | 2.4 | 18.3 | 0.8 |  |  |  |  |  |  |  |  |  |  |  |
| 328436 (antisense eG*eA*eA*eA*eA*dT*dT*dA*dT*dA*dT*dT*dG*dA*d[5mC]*eT*e[5mC]*eT*eG*eA) [compound 328436] | 59.2 | 13.9 | 26.9 | 3.5 | 17.4 |  |  |  |  |  |  |  |  |  |  |  | Fold Increase over UTC (caspase-3 activity, apoptosis) (T47D cells; experiment of Table 10): 0.9 fold |
| ISIS 328396: oligomeric compound targeting mir-205 (e[5mC]*eT*eG*eG*eT*dT*dG*dG*dG*dT*dA*dT*dG*dA*dG*eA*e[5mC]*eA*eG*eA) |  |  |  |  |  |  |  |  |  |  |  |  |  |  |  |  | percentage of aneuploid cells [1]: higher than average percentages of aneuploid cells; apoptosis in T47D cells (T47D cells): prevent or have a protective effect from apoptosis |
| 328388 (eT*e[5mC]*e[5mC]*e[5mC]*eA*dT*dA*dG*d[5mC]*dA*dG*dG*dG*d[5mC]*dA*eG*eA*eG*e[5mC]*e[5mC]; antisense) [compound 328388] | 57.5 | 14.6 | 28 | 4.0 | 14.5 | 0.9 | 85 | 110 | 115 | 83 | 120 | 99 | 102 | 101 | 126 | 112 |  |
| 328644 (eG*eA*e[5mC]*eA*eA*dG*dG*dT*dG*dG*dG*dA*dG*d[5mC]*dG*eA*eG*eT*eG*eG; antisense) [compound 328644] | 58.4 | 14 | 27.6 | 7.2 | 17.5 | 0.7 | 68 | 113 | 109 | 84 | 71 | 101 | 98 | 101 | 82 | 52 |  |
| 328424 (antisense eA*eG*eG*eA*eA*dG*d[5mC]*dA*d[5mC]*dA*d[5mC]*dA*dT*dT*dA*eT*e[5mC]*eA*e[5mC]*eA) [compound 328424] | 61.9 | 14.4 | 23.7 | 3.1 | 16.9 |  | 74 | 110 | 112 | 85 | 60 | 103 | 101 | 91 | 111 | 89 | Fold Increase over UTC (caspase activity) (T47D cells): 0.9 |
| 328697 (eG*e[5mC]*eT*eT*eG*dT*d[5mC]*d[5mC]*dA*d[5mC]*dA*d[5mC]*dA*dG*dT*eT*e[5mC]*eA*eA*e[5mC]; antisense) [compound 328697] | 57.6 | 16 | 26.4 | 2.4 | 13.5 | 1.0 |  |  |  |  |  |  |  |  |  |  |  |
| 328651 (eG*eG*eT*eA*eA*dG*dA*dG*dG*dA*dT*dG*d[5mC]*dG*d[5mC]*eT*eG*e[5mC]*eT*e[5mC]; antisense) [compound 328651] |  |  |  |  |  |  |  |  |  |  |  |  |  |  |  |  | TG (triglyceride accumulation) (adipocytes): 93 percentage of untreated control (UTC); AP2 mRNA (aP2): 84 percentage of untreated control (UTC); HSL mRNA (HSL): 109 percentage of untreated control (UTC); GLUT4 mRNA (Glut4): 78 percentage of untreated control (UTC); PPAR gamma mRNA (PPARγ): 106 percentage of untreated control (UTC); Fold Increase over UTC (caspase-3 activity, apoptosis) (T47D cells; experiment of Table 10): 0.9 fold |
| 328400 (antisense eA*eG*eT*eT*e[5mC]*dA*dA*dA*dA*d[5mC]*dT*d[5mC]*dA*dA*dT*e[5mC]*e[5mC]*e[5mC]*eA*eA) [compound 328400] |  |  |  |  |  |  |  |  |  |  |  |  |  |  |  |  | TG (triglyceride accumulation) (adipocytes): 60 percentage of untreated control (UTC); AP2 mRNA (aP2): 34 percentage of untreated control (UTC); HSL mRNA (HSL): 40 percentage of untreated control (UTC); GLUT4 mRNA (Glut4): 18 percentage of untreated control (UTC); PPAR gamma mRNA (PPARγ): 67 percentage of untreated control (UTC); Fold Increase over UTC (caspase activity) (T47D cells): 1.3 |
| ISIS 328394: oligomeric compound targeting mir-181a (eG*eT*eT*eT*eT*dT*dT*d[5mC]*dA*dA*dA*dT*d[5mC]*d[5mC]*d[5mC]*eA*eA*eA*e[5mC]*eT) |  |  |  |  |  |  |  |  |  |  |  |  |  |  |  |  | percentage of aneuploid cells [1]: higher than average percentages of aneuploid cells; apoptosis in T47D cells (T47D cells): prevent or have a protective effect from apoptosis |
| 328419 (antisense eT*eG*eT*eT*eG*d[5mC]*d[5mC]*dT*dA*dA*d[5mC]*dG*dA*dA*d[5mC]*eA*e[5mC]*eA*eG*eA) [compound 328419] | 51.2 | 16.3 | 32.5 | 6.0 | 17.9 | 0.7 | 77 | 109 | 124 | 79 | 87 | 99 | 107 | 96 | 112 | 83 |  |
